Patent publication US12319678B2, “Thioridazine derivatives and their use for the treatment of cancer” (UNIVERSITA' DEGLI STUDI DI PADOVA, priority 2019, dated 2025)

Assays:
[1] = system: SHI-1, an AML cell line with the genetic aberrancy t(6;11); assay: Apoptosis assay (Annexin-V/propidium iodide) in t(6;11) SHI-1 cells; type: cell-based; settings: for apoptotic and dead cells: relative to DMSO; for cytotoxic activity on t(6;11) AML cells (cell death): SHI-1, 24 h after treatment, compared with TDZ
Procedure: (§1) Apoptosis was evaluated by double staining with Annexin-V/propidium iodide (Roche Biochemicals, Indianapolis, IN) and analyzed using Cytometer F C500 (Beckman Coulter, Brea, CA). Increased apoptosis was calculated and expressed as the percentage of Annexin-V-positive and propidium iodide-positive cells compared to those exposed to DMSO.

[2] = system: other AML cell lines harboring other genetic mutations (HL60, NOMO1, SKNO-1); assay: Apoptosis assay in non-t(6;11) AML cell lines; type: cell-based; settings: 24 and 48 h
Procedure: as §1

t(6;11) SHI-1 cells [3] = assay: Colonies forming assay in t(6;11) SHI-1 cells; type: cell-based; settings: 24 h pre-treatment, viable cells seeded in drug-free condition
Procedure: (§2) After 24 h of treatment, a total of 5×10^2 ML2, SHI-1, HL60, SKNO-1 or NOMO-1 cells and 3×10^3 primary blasts from patients with t(6;11)—rearranged AML were seeded into 500 μl of MethoCult™ (H4230 and H4534 respectively, Stemcell Technologies, Meda M B, Italy), in 24-well plates and incubated at 37° C. Fourteen days after seeding, an adequate volume of a 1:6 solution of 3-[4,5-dimethylthiazol-2-yl]-2,5-diphenyltetrazolium bromide (MTT, Sigma-Aldrich-Merck) in Hanks' was added to semisolid medium. Images were acquired by optical microscope with camera, and colonies were counted using ImageJ software.

[4] = system: non-t(6;11) HL60, NOMO-1, SKNO-1 cells; assay: Colonies forming assay in non-t(6;11) AML cell lines; type: cell-based; settings: 24 h of treatment, other AML cell lines
Procedure: as §2

[5] = system: primary cultures from patients with t(6;11) AML; assay: Apoptosis assay in primary t(6;11) AML cultures; type: cell-based; settings: primary t(6;11) AML compared with non-t(6;11)-AML; 24 and 48 h
Procedure: as §1

[6] = system: healthy bone marrow (HBM) cells; assay: Apoptosis assay in healthy bone marrow cells; type: cell-based; settings: 24 and 48 h
Procedure: as §1

[7] = system: t(6;11)-AML primary cells; assay: Colonies forming assay in t(6;11)-AML primary cells; type: cell-based
Procedure: as §2

SHI-1 xenografted mice = assay: Flank injection xenograft, SHI-1; type: in vivo, NSG mice; settings: 8 mg/kg daily i.p., compared with control (p<0.01 and p<0.001)
Procedure: (§3) Animal experiments were approved by the animal ethics committee of University of Padova and by Italian Minister of Health n° 512/2019-PR, and were executed in accordance with national guidelines and regulations. For flank injection experiments, six NOD-SCID interleukin-2 receptor gamma null (NSG) mice between 6 and 8 weeks of age were injected subcutaneously with 2×10^6 SHI-1, HL60 or THP-1 cells per flank-injection. Each mouse received two flank-injections. When tumors reached an area of 25 mm^2, mice were randomized in 2 groups (control and TDZ-treated), and daily treated with intraperitoneally (ip) administered TDZ 8 mg/kg. Experimental endpoint is reached when tumors reached an area of 250 mm^2.
(§4) TDZ was also used for further tests and particularly to test if it had same effects on leukemia growth in vivo in NOD/scid IL-2Rgnull (NSG) mice flank-injected with the SHI-1-t(6;11) or non-t(6;11) AML cell lines HL60 and THP-1. Xenografted tumor was allowed to grow up to ˜[…] before starting daily intraperitoneal (i.p.) TDZ administration (at 8 mg/kg concentration, below the previously described tolerated dose (Nagel D, Spranger S, Vincendeau M, Grau M, Raffegerst S, Kloo B, et al. Pharmacologic Inhibition of MALT1 Protease by Phenothiazines as a Therapeutic Approach for the Treatment of Aggressive ABC-DLBCL. Cancer Cell. 2012; 22:825-37)).

[8] = system: mice xenografted with HL60 or THP1; assay: Flank injection xenograft, HL60 or THP1; type: in vivo, NSG mice; settings: 8 mg/kg daily i.p.
Procedure: as §3, §4

t(6;11) SHI-1 cells [9] = assay: Reactive oxygen species (CellROX) by flow cytometry; type: cell-based; settings: 6, 16 and 24 h after treatment, compared with DMSO
Procedure: ROS production was monitored by flow cytometry using CellROX Deep Red Reagent (C10422, Invitrogen) following manufacturer's instructions. Briefly, CellROX Deep Red Reagent was added at a final concentration of 5 μM to the cells and incubated for 30 minutes at 37° C. Cells were washed three times with PBS, and analyzed by flow cytometry using Cytoflex (Beckman Coulter).

t(6;11) SHI-1 cells [10] = assay: Mitochondrial membrane potential (TMRE); type: cell-based; settings: 6 and 24 h after treatment, compared with DMSO
Procedure: Mitochondrial membrane potential was measured by using TMRE Assay Kit (ab113852, Abcam), following manufacturer's instructions Briefly, TMRE 200 nM diluted in BSA 0.2%-PBS1× was added for 20′ at 37° C. Cells were analyzed by flow cytometry using FC500.

SHI-1 cells = assay: Intracellular Ca2+ measurement (Fluo-4 AM) in SHI-1 cells; type: cell-based; settings: for mechanism of Ca2+ influx: SHI-1, Ca2+-containing or Ca2+-free buffer
Procedure: (§5) Intracellular Ca^2+ levels were monitored by Fluo-4 AM fluorescence according to the manufacturer's instructions. Briefly, cells were washed in Hanks Balanced Salt Solutions, incubated with Fluo-4 AM 3 μM diluted in the working buffer (0.02% w/v Pluronic and 0.2 mM sulfinpyrazone, both sourced from Sigma-Aldrich-Merck, in 10 mM HEPES-buffered Hanks) for 30′ at RT. After incubation, cells were washed and resuspended in working buffer with CaCl2) 0.2 mg/I for 30′, to allow the de-esterification of Fluo-4 AM. Results were evaluated using the FC500 cytometer, and 2-photon microscope Thorlabs. In both experiments, the mean fluorescence intensity (MFI) was detected at basal condition, and up to 5 minutes after treatment.

t(6;11) primary cells = assay: Intracellular Ca2+ measurement (Fluo-4 AM) in t(6;11) primary cells; type: cell-based; settings: primary cultures of t(6;11) AML
Procedure: as §5

NSG mice = assay: Stepping test (akinesia, neuroleptic effects); type: in vivo; settings: for neuroleptic effects (akinesia, stepping test): i.p., 36.85 μmol/Kg (corresponding to 15 mg/kg of TDZ), 1 h after injection
Procedure: Twelve NSG mice between 6 and 8 weeks of age were randomized in 4 groups (DMSO, thioridazine (TDZ), compound according to Example 1 (TDZ2) and compound according to Example 2 (TDZ6)), and treated every 2 days with growing doses of drugs, administered ip. […] The successive growing doses were 10 mg/kg, 12 mg/kg and finally 15 mg/kg, and the corresponding molar dose of the analogues. The stepping test was performed as previously described (Blume S R, Cass D K, Tseng K Y. Stepping test in mice: A reliable approach in determining forelimb akinesia in MPTP-induced Parkinsonism. Exp Neurol. 2009; 219:208-11) 1 h after drug injection, documented to be the time with the maximum TDZ serum concentration (Nagel D, Spranger S, Vincendeau M, Grau M, Raffegerst S, Kloo B, et al. Pharmacologic Inhibition of MALT1 Protease by Phenothiazines as a Therapeutic Approach for the Treatment of Aggressive ABC-DLBCL. Cancer Cell. 2012; 22:825-37). Briefly, the stepping test was performed on an open table and each trial was recorded using a digital video camera. The animal was allowed to settle at one edge of the table, then the experimenter would lift up the hind legs by pulling up on the tail, leaving only the forepaws touching the table, for a total distance of 1 m. The number of steps from both forepaws and the time used were computed.

CSc1ccc2c(c1)N(CCC1CCCCN1C)c1ccccc1S2 (racemic) [TDZ, thioridazine]
apoptotic and dead cells ([1]; SHI-1, 24 h of treatment): 60.8% | apoptotic and dead cells ([1]; SHI-1, 48 h of treatment): 84.3% | apoptosis level after MLL-AF6 silencing ([1]; SHI-1, treatment 16 h after MLL-AF6 silencing, 8, 24 and 30 h after treatment): significant rescue of apoptosis level | apoptosis and cell death [2]: almost no effects | colony-forming ability (t(6;11) SHI-1 cells [3]): abrogated colony-forming ability | clonogenic potential [4]: did not decrease the clonogenic potential | apoptosis [5]: induced apoptosis selectively | toxic effects [6]: no toxic effects | colony-forming ability [7]: abrogated colony-forming ability | progression of tumor growth (SHI-1 xenografted mice): significantly reduced the progression of tumor growth | tumor growth [8]: not affected | reactive oxygen species (ROS) (t(6;11) SHI-1 cells [9]): highly increased | mitochondrial depolarization (TMRE) (t(6;11) SHI-1 cells [10]): mitochondrial depolarization | intracellular Ca2+, MFI (Fluo-4 AM, flow cytometry) (SHI-1 cells; 0 minutes post treatment): 68.9 | intracellular Ca2+, MFI (Fluo-4 AM, flow cytometry) (SHI-1 cells; 1 minute post treatment): 91.8 | intracellular Ca2+, MFI (Fluo-4 AM, flow cytometry) (SHI-1 cells; 3 minutes post treatment): 85.8 | intracellular Ca2+, MFI (Fluo-4 AM, flow cytometry) (SHI-1 cells; 5 minutes post treatment): 85.4 | rise in intracellular Ca2+ concentration (SHI-1 cells; Ca2+-containing buffer (external Ca2+ present)): triggers a rise in intracellular Ca^2+ concentration in the presence | Ca2+ intake after EGTA pre-treatment (SHI-1 cells; SHI-1, EGTA pre-treatment 30' before TDZ): Ca^2+ intake was prevented | cytosolic Ca2+ influx (t(6;11) primary cells): increased cytosolic Ca^2+ influx | side effects (NSG mice; 8 mg/kg i.p. starting dose, previously tested): free of side effects | neuroleptic effects (akinesia, stepping test) (NSG mice): provokes severe central side effects

COCCOCCOCCN1CCCCC1CCN1c2ccccc2Sc2ccc(SC)cc21 (stereo not shown) [TDZ2]
cytotoxic activity on t(6;11) AML cells (cell death) [1]: maintain cytotoxic activity | mechanism of Ca2+ influx (SHI-1 cells): same mechanism of Ca^2+ influx of TDZ | neuroleptic effects (akinesia, stepping test) (NSG mice): did not induce neuroleptic effects

CSc1ccc2c(c1)N(CCC1CCCCN1CCOCCOCCN)c1ccccc1S2 (stereo not shown) [TDZ6]
cytotoxic activity on t(6;11) AML cells (cell death) [1]: maintain cytotoxic activity | mechanism of Ca2+ influx (SHI-1 cells): same mechanism of Ca^2+ influx of TDZ | neuroleptic effects (akinesia, stepping test) (NSG mice): did not induce neuroleptic effects
